Experimental data from patent publication US7230033B2, “Pest control compositions and methods for their use” (United States of America as represented by the Secretary of …, priority 2000, dated 2007).
Like-named read-outs stand apart in the source and are kept apart here. Marks after values point to notes of the source that are not given here.

How the values were obtained:
I. scapularis nymphs = experiment: Tick bioassay, treated 2-dram vials, probit analysis; assay type: in vivo, Ixodes scapularis; conditions: for Slope: probit; for LC50 (1 h) / LC50 (24 h) / LC90 (1 hr) / LC90 (24 h): Ixodes scapularis nymphal ticks, alone, or 1:1 with carvacrol (in parenthesis)
Text: A control treated with acetone only was run with each series.
For each time point, if ticks and fleas were incapable of movement, maintaining normal posture, leg coordination, ability to right themselves, or any signs of life, they were considered moribund or dead.

X. cheopis adults = experiment: Flea bioassay, treated 2-dram vials, probit analysis; assay type: in vivo, Xenopsylla cheopis; conditions: 24 h exposure; probit
Description: Med. […] A control treated with acetone only was run with each series. Tick and flea susceptibility was evaluated using a modification of the disposable pipette method of Barnard et al. (J. Econ. Entomol., 74:466-69, 1981) and Maupin and […]. Med. […] The inner surface of 2-dram friction cap vials were treated with the compound/acetone solution, or acetone only as a control, and left to air-dry overnight (see also, […] et al., J. Med. […] Three to 4 holes were made in the plastic cap to allow for air exchange. Nymphal ticks and adult fleas were then placed directly into the vials using forceps. […] For each time point, if ticks and fleas were incapable of movement, maintaining normal posture, leg coordination, ability to right themselves, or any signs of life, they were considered moribund or dead.

Ae. aegypti adults = experiment: Adult mosquito bottle bioassay; assay type: in vivo, Aedes aegypti; conditions: for Slope: probit; for LC50 (15 min) / LC50 (24 h) / LC90 (15 min) / LC90 (24 h): Aedes aegypti adult mosquitoes, alone, or 1:1 with carvacrol (in parenthesis)
Description: (§1) Adult mosquitoes were tested using the bottle bioassay method of Brogden and McAllister (J. Am. Mosq. Control Assoc., 14:159–64, 1998) with minor modifications. Natural product extracts were two-fold serially diluted for a total of 8 concentrations ranging from 0.002% to 0.25% in 1.5 ml of acetone. Individual dilutions were added to 250 ml Wheaton glass bottles and capped. Bottles were manipulated to evenly coat all inner surfaces. The caps were removed and bottles were allowed to air-dry overnight. Once bottles were completely dry, 10–50 (in some tests 25–50) adult mosquitoes were aspirated into the bottles. Mosquitoes were held in the bottles for 24 h at 23° C. and 85% RH. Morbidity and mortality were recorded at 15, 30, 45, and 60 min and 24 hour intervals. One bottle for each replicate was treated with acetone only and served as a control. The dose-mortality data was evaluated with probit analysis, using the LdP Line software, to determine LC50 and LC90 values.
Carvacrol was combined with compound 7, 9, or 10 at a 1:1 ratio (7.5 μl of carvacrol:7.5 μl of compound 7, 9, or 10 was added to 2,985 μl of acetone for a 0.5% solution, from which serial dilutions were made), and tested as previously described against nymphal ticks and adult and larval mosquitoes.

Ixodes scapularis nymphs = experiment: Residual activity, aged treated vials, ticks; assay type: in vivo; conditions: for LC90, residual activity: NE = not effective
Description: (§2) Briefly, groups of 10 nymphal I. scapularis and X. cheopis fleas were used in all tests (more than a total of 5,240 nymphs and 4,860 fleas were exposed to the compounds). The inner surface of 2-dram friction cap vials were treated with the compound/acetone solution, or acetone only as a control, and left to air-dry overnight (see also, Panella et al., J. Med. Entomol., 42(3):352-358, 2005. Three to 4 holes were made in the plastic cap to allow for air exchange. Nymphal ticks and adult fleas were then placed directly into the vials using forceps. Vials containing ticks or fleas were placed in desiccators for 24 h at 21° C. and 90% RH. Morbidity and mortality was recorded at 1, 2, 4, 8, and 24 h after initial exposure.

[1] = tested on: fourth-instar Aedes aegypti larvae; experiment: Larval mosquito bioassay; assay type: in vivo; conditions: Aedes aegypti larval mosquitoes, concentration of the 1 ml added to 150 ml water
Description: Individual groups of 10 fourth-instar Aedes aegypti larvae were contained in 150 ml of water and exposed to […] of essential oils prepared by 2-fold serial dilutions ranging from 0.06%–5.0% in 1 ml of acetone. A control group of larvae were exposed to 1 ml of acetone only.
It is important to note that larval mosquitoes are tested in their natural environment, i.e., in water. The particular assays used herein involved groups of 10 larval mosquitoes in 150 ml of water. The weight percentages reported for lethal concentration for larval mosquitoes are the weight percentages added to the 150 ml water (as opposed to the final percentage of the tested compound(s) in the 150 ml water). As one of skill in the art will appreciate, test compound(s) added to a volume of water (such as, 150 ml) can be dramatically diluted depending upon the water solubility of the tested compound. […] If the tested compound is an oil (such as, carvacrol, nootkatone, or 13-hydroxy-valencene), it most likely floats on the surface of the water.

[2] = tested on: Ixodes scapularis nymphal ticks; experiment: Tick repellency bioassay; assay type: in vivo
Text: One-hundred (100) μl of test compound was pipetted onto a cotton-tipped applicator mounted to the bottom center of a 1 dram glass shell vial using non-toxic modeling clay. A total of 8 concentrations were screened with doses ranging from 0.04–5.0%. Applicators treated with acetone only served as controls. A line was drawn around the perimeter of the vial immediate to the base of the treated cotton portion of the applicator. The area above the line was designated the “repellent zone”. The vial was allowed to air-dry 1 h before a single tick was introduced. Vials were covered with a single piece of mesh and fitted with a hollowed-out plastic cap to cover the opening of the vial; this prevented the tick from escaping but allowed for air exchange. Vials were breathed upon by investigators at 1 min intervals and a hand was placed over the test vials to provide stimuli for ticks to pass into the repellent zone. […] If the tick crossed over and remained in the “repellent zone” for ≧5 sec, the tick was deemed non-repelled by the test compound. Each test was replicated 10 times using a new tick for each test. Repellent activity was determined at 1, 2, 3, and 4 h after treatment. Probit analysis was used to determine repellent efficacy (RD50 and RD95).

[3] = tested on: ticks, fleas, and mosquitoes; experiment: Residual activity, general statements (Examples 9, 17); assay type: in vivo
[4] = tested on: Xenopsylla cheopis adults; experiment: Residual activity, aged treated vials, fleas; assay type: in vivo
Description: as §2

Aedes aegypti adults = experiment: Residual activity, aged treated bottles, mosquitoes; assay type: in vivo
Description: as §1

[5] = 24 h exposure, NE = not effective at concentrations tested
[6] = 1 h after compound applied to applicator
[7] = 4 h after compound applied to applicator

Row | SMILES | Slope (I. scapularis nymphs; 24 h exposure) | LC50 (1 h) (I. scapularis nymphs) | LC50 (24 h) (I. scapularis nymphs) | LC90 (1 hr) (I. scapularis nymphs) | LC90 (24 h) (I. scapularis nymphs) | Slope (X. cheopis adults) | Slope (Ae. aegypti adults; 24 h exposure) | LC50 (15 min) (Ae. aegypti adults) | LC50 (24 h) (Ae. aegypti adults) | LC90 (15 min) (Ae. aegypti adults) | LC90 (24 h) (Ae. aegypti adults) | LC50 (1 h) [1] | LC50 (24 h) [1] | LC90 (1 hr) [1] | LC90 (24 h) [1] | Slope (±SEM) ([2]; 1 h) | RD50 [2, 6] | RD95 [2, 6] | Slope (±SEM) ([2]; 4 h) | RD50 [2, 7] | other results
1 | Cc1ccc(C(C)C)cc1O [Compound 4, Carvacrol] | 3.906 | 0.019^b % (wt:vol) | 0.0068 % (wt:vol) | 0.071 % (wt:vol) | 0.014 % (wt:vol) | 3.413 | 2.908 | 0.0057^b % (wt:vol) | 0.0051 % (wt:vol) | 0.017 % (wt:vol) | 0.014 % (wt:vol) | 3.853^b % (wt:vol) | 0.988 % (wt:vol) | 10.478 % (wt:vol) | 1.411 % (wt:vol) | 1.506 (±0.355) | 0.088 % (wt:vol) | 1.09 % (wt:vol) | 2.907 (±0.755) | 0.077 % (wt:vol) | LC90 (I. scapularis nymphs; [5]): 0.014 percent concentration, wt:vol; LC50 (1 h) (I. scapularis nymphs; listed as carvacrol): 0.019 % (wt:vol); LC50 (24 h) (I. scapularis nymphs; listed as carvacrol): about 0.0068 % (wt:vol); LC50 (Ae. aegypti adults; [5]): 0.0051 percent concentration, wt:vol; LC50 (15 min) (Ae. aegypti adults; listed as carvacrol): 0.0057 % (wt:vol); residual activity (Ixodes scapularis nymphs; nymphal I. scapularis): lacks any residual activity beyond about 1 week; LC50 (1 h) ([1]; listed as carvacrol): 3.853 % (wt:vol); LC50 (24 h) ([1]; listed as carvacrol): 1.411 % (wt:vol); RD95 [2, 7]: 0.283 % (wt:vol); more effective than Deet ([2]; at 1 h): 1.9 fold; more effective than Deet ([2]; at 4 h): 46 fold; residual activity [3]: little-to-no activity beyond 24 h
2 | C=C(CO)C1CCC2=CCC[C@@H](C)[C@]2(C)C1 (some centres unmarked) [Compound 10, 13-hydroxy-valencene] | 2.562 | 0.017 % (wt:vol) | 0.0054 % (wt:vol) | 0.065 % (wt:vol) | 0.014 % (wt:vol) | 3.143 | 2.094 | 0.077 % (wt:vol) | 0.0034 % (wt:vol) | 0.373 % (wt:vol) | 0.014 % (wt:vol) | 5.132 % (wt:vol) | 0.975 % (wt:vol) | 13.425 % (wt:vol) | 1.23 % (wt:vol) | 1.332 (±0.313) | 0.095 % (wt:vol) | 1.637 % (wt:vol) | 1.066 (±0.307) | 0.114 % (wt:vol) | Slope, residual activity (Ixodes scapularis nymphs; 1 week after treatment): 3.005; LC90, residual activity (Ixodes scapularis nymphs; 1 week after treatment): 0.019 percent concentration, wt:vol; Slope, residual activity (Ixodes scapularis nymphs; 2 weeks after treatment): 1.781; LC90, residual activity (Ixodes scapularis nymphs; 2 weeks after treatment): 0.044 percent concentration, wt:vol; Slope, residual activity (Ixodes scapularis nymphs; 4 weeks after treatment): 1.285; Slope, residual activity ([4]; 1 week after treatment): 2.218; Slope, residual activity ([4]; 2 weeks after treatment): 2.442; LC90, residual activity (Aedes aegypti adults; 1 week after treatment): 0.058 percent concentration, wt:vol; Slope, residual activity (Aedes aegypti adults; 1 week after treatment): 3.286; Slope, residual activity (Aedes aegypti adults; 2 weeks after treatment): 6.932; LC90, residual activity (Aedes aegypti adults; 2 weeks after treatment, NE = not effective): 0.021 percent concentration, wt:vol; Slope, residual activity (Aedes aegypti adults; 4 weeks after treatment): 2.645; LC90, residual activity (Aedes aegypti adults; 4 weeks after treatment, NE = not effective): 0.04 percent concentration, wt:vol; LC50 (24 h) ([1]; listed as 13-hydroxy-valencene): 1.23 % (wt:vol); RD95 [2, 7]: 3.993 % (wt:vol); residual activity ([3]; ticks): considerable biological activity through the four week time period
3 | C[C@@H]1CC(=O)C2OC23CCC(C2(C)CO2)C[C@@]13C (some centres unmarked) [Compound 18, nootkatone-1,10–11,12-diepoxide] | 2.131 |  |  |  |  | 1.455 | 4.472 |  |  |  |  |  |  |  |  |  |  |  |  |  | 
